The text below walks through data of patent publication US20090176714A1, “METHOD OF REDUCING THE EFFECTS OF ABeta AND COMPOSITIONS THEREFORE” (priority 2004, published 2009).

The test system of test [1] is hippocampal slice cultures. The experiment in a line: Aβ-induced cell death (EthD-1/calcein AM, % Death) in organotypic hippocampal slice cultures. It is filed as cell-based, mouse. Here is the method:
Pups from C57B6/SJL mice were anaesthetized and decapitated at postnatal day 15. The brain was removed and placed in ice-cold dissecting medium (50% Minimum Essential Medium (Invitrogen, Carlsbad, Calif.), 50% Hank's Balanced Salt Solution (Invitrogen), 25 mM HEPES, and 36 mM glucose). Both hippocampi were dissected under a dissecting microscope and cut at 400 μm on a McIlwain tissue chopper. Slices were separated and placed on filter inserts with a 30 mm diameter and a 0.4 μm filter pore size (Millipore, Billerica, Mass.) held in 6-well culture plates. For the first 3 days, slices were kept in Neurobasal media with B-27 supplement, 1 mM glutamine, and 1% penicillin/streptomycin (Invitrogen). Subsequently, the media was changed every 3 days using media without antibiotics. Organotypic cultures were maintained in a humidified incubator at 37° C. in 5% O2 and 5% CO2 for 14 to 21 days.
Cell death and viability was determined on live slices using the fluorescent probes from Molecular Probes' Live/Dead Kit. After a 40 minute incubation in calcein AM (1:400) and ethidium homodimer (1:1000) in phosphate buffered saline, slices were visualized at 200× magnification with an inverted Nikon Diaphot 200 microscope using the Bio-Rad MRC-1024 Laser Scanning Confocal system (Hercules, Calif.). Random images of the neuronal fields were captured at the emission spectrum of each probe, and Scion Image software (Frederick, Md.) was used to quantify the number of live and dead cells. At least three areas including a neuronal field were imaged and used to determine the percent death for each slice. The percent death was calculated as the number of EthD-1 positive cells divided by the total number of EthD-1 and calcein AM positive cells.
β-amyloid1-42 and reverse Aβ (Aβ42-1) were obtained from BACHEM (Torrance, Calif.). These polypeptides were dissolved in 0.1% NH3OH at 222 μM. For treatments, Aβ was aggregated at 50 μM in Neurobasal media with B-27 supplement and 1 mM glutamine at 37° C. for 24 hours. Then, the slice culture media was removed, and the slices were treated with 1 mL of 25 μM or 50 μM Aβ, reverse Aβ, or vehicle for 24 hours. Human TTR (Calbiochem) or IGF-2 (Peprotech, Rocky Hill, N.J.) was added to slices together with the Aβ treatment at final concentrations of 3 μM (TTR) or 500 nM (IGF-2). sAPPα was prepared as described previously (Mattson et al., Neuron, 10:243-254 (1993)).
Unless otherwise stated, all sAPPα treatments were performed at 1 nM 48 hours prior to the addition of Aβ. Antibodies against TTR (C-20) or IGF-2 (F-20; 4 μg/mL; Santa Cruz) or sAPPα (6E10; 10 μg/mL; Chemicon) were added to slices together with the sAPPα treatment. Goat IgG (4 μg/mL; Santa Cruz) or mouse IgG1 (10 μg/mL; Chemicon) was added as a control. The 10 amino acid fragment of the carboxyl-terminal region of sAPPα (592-601 of APP695; SEVKMDAEFR; SEQ ID NO:1; Sigma) was added according to the same protocol for sAPPα.
SiRNA's were created based on the mouse mRNA sequences using the Ambion Silencer siRNA Construction Kit (Austin, Tex.). Several siRNA's were created by in vitro transcription for each silenced gene. Transfection was performed for 4 hours at 37° C. prior to vehicle or sAPPα treatment using 25 nM siRNA combined with the polyamines in the Ambion siPORT Amine Transfection Agent. Transfections were performed in Neurobasal media with 1 mM glutamine (Invitrogen). The successful mRNA target sequences are as follows, TTR: 5′-[…]-3′ (SEQ ID NO:16) and 5′-[…]-3′ (SEQ ID NO:17); IGF-2: 5′-AA-GGGGATAGAGATGTGAGAG-3′ (SEQ ID NO:18) and 5′-AAATTATGTGGT-AATTCTGCA-3′ (SEQ ID NO:19); IGF-1R: 5′-[…]-3′ (SEQ ID NO:20) and 5′-[…]-3′ (SEQ ID NO:21).
β-amyloid1-42 and reverse Aβ (Aβ42-1) were obtained from BACHEM (Torrance, Calif.). These peptides were dissolved in 0.1% NH3OH at 222 μM. For treatments, Aβ was aggregated at 50 μM in Neurobasal media with B-27 supplement and 1 mM glutamine at 37° C. for 24 hours. […]

A further test concerns hippocampi of mice. The experiment in a line: Stereotaxic injection into mouse hippocampus, TTR immunohistochemistry. The class given is in vivo. Here is the method:
Ten week old B6/SJL mice were stereotaxically injected on the right side of their hippocampi with sAPPα, a 10 amino acid fragment, or a scrambled 10-mer to an estimated 1 nM intra-hippocampal concentration. The contralateral sides were injected with artificial cerebrospinal fluid. Each injection consisted of […] of solution delivered over the period of 10 minutes. 48 hours after surgery, the mice were perfused with cold PBS, and their hippocampi were dissected and stored in stabilizing solution for subsequent RNA extraction.
48 hours after injection, mice were perfused with 4% PFA. The brains were harvested, hemisected, and fixed in 4% PFA overnight. They were then sunk in 30% sucrose for 24 hours, frozen, and sectioned. Sections were stained with cresyl violet for morphological verification of the injection site. Other sections were stained with goat anti-TTR, and biotinylated secondary antibody to show TTR protein expression, and ToPro3 as a nuclear marker. A control for nonspecific staining was done with goat IgG.
FIG. 13 is a set of stained micrographs showing stereotactic injection of sAPPα decamer into hippocampus induces expression of TTR in normal mouse brain. […] Injection of 1.5 μl of 15.3 nM solution prepared in artificial cerebral spinal fluid (CSF) was performed to approximate a final concentration of 1 nM in the hippocampus. The contralateral side was injected with only artificial CSF and used as control. […] The DNA binding dye ToPro3 was used to visualize nuclei (blue).

[2] abbreviates: 1 nM 48 hours prior to 25 μM Aβ (24 hours), FIG. 7.

As for β-amyloid1-42 [Aβ], the “Percent death compared to treatment with vehicle” value in test [1] (25 μM Aβ, 24 hours) is “dramatic and significant increase”. Also, the “Neurons that lost membrane integrity (EthD-1 positive) / percent death” value in test [1] (25 μM or 50 μM Aβ, 24 hours, compared to reverse Aβ) is recorded as “dramatic increase”.

As for “DAEF [peptide of 4 residues within the 10 residue peptide (residues 597-600)]”, the “TTR after injection into hippocampus” value with hippocampi of mice (preliminary data) is reported as “increased TTR”. Further, the “Protection against Aβ-induced death (% Death)” value in test [1] (setting [2]) is reported as “sufficient to protect”; in test [1] (1 nM 48 h prior to 25 μM Aβ (24 h), FIG. 12A), “protects against the Aβ-induced toxicity”; in test [1] (1 nM 48 h prior to 25 μM Aβ (24 h), FIG. 12A, listed as tetramer), “completely protected”; in test [1] (48 h prior to 25 μM Aβ (24 h), FIG. 12B, 1 nM, final concentration of 1 mM) it was “protects against the Aβ-induced toxicity”; in test [1] (48 h prior to 25 μM Aβ (24 h), FIG. 12B, 1 nM, final concentration of 1 mM, listed as tetramer), “completely protected”.

Regarding SEVKMDAEFR, in the test with hippocampi of mice (1.5 μl of 15.3 nM solution (about 1 nM final) vs contralateral CSF injected hippocampus, FIG. 13), the “Amount of TTR in and around the CA1 hippocampal neurons, immunohistochemistry” value is “increased the amount of TTR”. In the test with hippocampi of mice (estimated 1 nM intra-hippocampal concentration, 48 hours after injection), the “Levels of TTR within treated hippocampi” value was “increased levels of TTR”. Moreover, the “Protection against Aβ-induced death (% Death)” value in test [1] (setting [2]) is “completely protected”. The “Protection against Aβ-induced death (% Death, EthD-1 positive cells)” value in test [1] (1 nM added 48 hours prior to 25 μM or 50 μM Aβ (24 hours), FIG. 4A) is given as “mimics the protective effect of sAPPα”.
